Test results: patent US5659012A, “Peptide which binds SH2 domains of protein tyrosine phosphatase SH-PTP1” (Whitehead Institute for Biomedical Research, priority 1995, dated 1997)

Tests used:
[1] = test system: 32D cells expressing the EPO-R mutant Y429,431F; assay: Proliferation assay (3H-Thymidine incorporation), EPO-dependent proliferation; format: cell-based
Method: (§1) FIG. 2 is a graphic illustration of EPO-dependent proliferation of 32D cells expressing the wt EPO-R and the EPO-R mutant Y429, 431F. […] Each data point represents the mean of triplicate determinations±standard deviation.
(§2) To assess the role of SH-PTP1 in regulating proliferative signals generated by the EPO-R, the proliferation of 32D cells expressing wt EPO-R or EPO-R Y429,431F was measured. […] When grown in EPO, the half-maximal proliferation of pools of 32D cells expressing the wt EPO-R required 0.25 units EPO/ml and maximal proliferation required about 1 units/ml (FIG. 2). […] Pools of 32D cells expressing the mutant EPO-R Y429,431F achieved half-maximal proliferation in as little as 0.025 units EPO/ml, reaching a maximum rate at 0.1 units/ml (FIG. 2). At the highest EPO concentrations employed, the rate of proliferation of cell pools expressing the wt EPO-R or the EPO-R mutant Y429,431F was the same.
(§3) Proliferation assays were performed in 96 well plates with 200 μl/well. 5×10^4 32D cells/ml were seeded in the presence of indicated amounts of cytokines (EPO O--5 units/ml; IL3 0-100 units/ml). After 48 hours, 1 μCi 3H-Thymidine (DuPont NEN)/well was added for another 3 hours. The labeled cells were then harvested by a 96 well plate harvester (Scantron Instruments Inc.) and the amount of radioactively labeled DNA was quantitated in a scintillation counter.

[2] = test system: 32D cells expressing the wt EPO-R; assay: as above; format: cell-based; conditions: pools of 32D cells expressing wt EPO-R
Method: as §1, §2, §3

[3] = pools of 32D cells expressing mutant EPO-R Y429,431F

Erythropoietin [EPO]
amount of EPO allowing proliferation relative to the normal amount ([1]; mutant EPO-R unable to bind SH-PTP1 versus wt EPO-R): one-fifth to one-tenth
EPO giving half-maximal proliferation [1, 3]: 0.025 units EPO/ml
EPO giving maximum rate of proliferation [1, 3]: 0.1 units/ml
EPO required for maximal proliferation [2]: about 1 units/ml
EPO required for half-maximal proliferation ([2]; 48 h + 3 h 3H-Thymidine): 0.25 units EPO/ml
